Results from patent publication US6610315B2, “Topical application of stable hydroalcoholic compositions for maintaining or improving skin conditions, and delivering fragrance to skin” (3M Innovative Properties Company, priority 1995, dated 2003).

Columns and labels:
[1] = tested on: E. coli ATCC8739 (lab strain 223); test: Minimum Inhibitory Concentration (MIC); assay type: cell-based
Experimental: (§1) An overnight culture of E. coli ATCC8739 (lab strain 223) and/or S. Aureus ATCC 14154 (lab strain 502) grown on trypticase soy agar plates was resuspended in Mueller-Hinton Broth to a cell density of 0.6-1.2×10^6 colony forming units per milliliter. Chlorhexidine samples were prepared by adjusting CHG to 512 μg/ml in Mueller-Hinton Broth and serially diluting in two-fold steps in Mueller-Hinton Broth. The CHG-containing Mueller-Hinton Broth was placed in 96-well sterile microliter plates and each well was inoculated with the bacteria. The plates were then incubated for 24-48 hrs at 37° C. Bacterial growth was determined visually by comparing the plates.

[2] = tested on: S. Aureus ATCC 14154 (lab strain 502); test: Minimum Inhibitory Concentration (MIC); assay type: cell-based
Experimental: as §1

[3] = Example 9, lowest concentration of CHG giving complete kill, 24-48 hrs at 37° C.
[4] = Example 24, CHG at 0.5% by weight where present

N=C(NCCCCCCNC(=N)NC(=N)Nc1ccc(Cl)cc1)NC(=N)Nc1ccc(Cl)cc1.O=C(O)[C@H](O)[C@@H](O)[C@H](O)[C@H](O)CO.O=C(O)[C@H](O)[C@@H](O)[C@H](O)[C@H](O)CO [0.5% CHG std., chlorhexidine gluconate]
4 µg/mL: MIC (μg/ml) E. coli [1, 3] | E. coli 223 MIC [1, 4] | MIC (μg/ml) S. aureus [2, 3] | S aureus 502 MIC [2, 4]
